Experimental data taken from PubChem BioAssay (NCI).
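Step 1: Grow cells in 96-well plates. Step 2: Expose to compound for 48 hours at 5 concentrations. Step 3: Interpolate endpoints linearly; if unreached, use highest concentration. Abbreviation: GI50, concentration required for 50% inhibition of growth. TGI: concentration producing complete growth inhibition.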

Legend:
Assay in all cases: inhibition of tumour cell growth, NCI panel, 48 h
CCRF-CEM leukemia = tested on: CCRF-CEM leukemia
UO-31 renal = tested on: UO-31 renal
HCT-116 colon = tested on: HCT-116 colon
M19-MEL melanoma = tested on: M19-MEL melanoma
DLD-1 colon = tested on: DLD-1 colon
RPMI-8226 leukemia = tested on: RPMI-8226 leukemia
DMS 273 small cell lung = tested on: DMS 273 small cell lung
NCI-H226 lung = tested on: NCI-H226 lung
HOP-62 NSCLC = tested on: HOP-62 NSCLC
M14 melanoma = tested on: M14 melanoma
HS 578T breast = tested on: HS 578T breast
DU-145 prostate = tested on: DU-145 prostate
MDA-MB-435 = tested on: MDA-MB-435

Compound | GI50 (CCRF-CEM leukemia) | TGI (CCRF-CEM leukemia) | TGI (UO-31 renal) | TGI (HCT-116 colon) | TGI (M19-MEL melanoma) | TGI (DLD-1 colon) | TGI (RPMI-8226 leukemia) | TGI (DMS 273 small cell lung) | TGI (NCI-H226 lung) | TGI (HOP-62 NSCLC) | TGI (M14 melanoma) | GI50 (HS 578T breast) | TGI (HS 578T breast) | GI50 (UO-31 renal) | GI50 (DU-145 prostate) | TGI (DU-145 prostate) | GI50 (MDA-MB-435) | TGI (MDA-MB-435) | GI50 (RPMI-8226 leukemia) | GI50 (NCI-H226 lung)
O=C(O)/C=C/c1cnc[nH]1 | > 500 µM | > 500 µM | > 500 µM | > 500 µM | > 500 µM | > 500 µM | > 500 µM | > 500 µM | > 500 µM | > 500 µM |  |  |  |  |  |  |  |  |  | 
COc1ccc2c(c1)O[C@H]1c3ccc(O)cc3OC[C@@H]21 |  | 65.8 µM | 72.6 µM | > 100 µM | 46 µM | > 100 µM | 89 µM | > 100 µM | 59.3 µM | > 100 µM | 47.7 µM |  |  |  |  |  |  |  |  | 
COc1cccc(C2C(C(=O)O)=C(CO)Oc3cc4c(cc32)OCO4)c1 (centres undefined) |  | > 100 µM | > 100 µM |  | > 100 µM | > 100 µM | > 100 µM |  | > 100 µM |  | > 100 µM |  |  |  |  |  |  |  |  | 
CCSc1nc(N2CCCCC2)c2cn[nH]c2n1 | 34.7 µM | > 100 µM | > 100 µM |  |  |  | > 100 µM |  | 51.3 µM |  |  | 32.7 µM | > 100 µM | 34 µM | 18.4 µM | 75.5 µM | 28.8 µM | 75.6 µM | 28 µM | 15.3 µM
CCOC(=O)C1(C(=O)OCC)CSC1 |  | > 100 µM | > 100 µM | > 100 µM |  |  |  |  | > 100 µM |  | > 100 µM |  | > 100 µM |  |  | > 100 µM |  | > 100 µM |  | 
CC(=O)NC(CCCCNC(=O)OC(C)(C)C)C(=O)O (centres undefined) |  | > 100 µM | > 100 µM | > 100 µM |  |  | > 100 µM |  |  | > 100 µM | > 100 µM |  |  |  |  | > 100 µM |  | > 100 µM |  | 
COC(=O)C1=COC2OC3/C(=C\c4ccc(O)c(OC)c4)C(=O)OC34C=CC1C24 (centres undefined) |  | 49.2 µM | 28.3 µM | 34.4 µM | 27.3 µM | 32.5 µM | > 100 µM | 30 µM | 29.2 µM | 39.5 µM | 14.7 µM |  |  |  |  |  |  |  |  | 
O=C(N1CCC(CN=c2cc3n(-c4ccc(Cl)cc4)c4ccccc4nc-3cc2Nc2ccc(Cl)cc2)CC1)N1CC1 | 0.253 µM | 1.15 µM |  |  |  |  |  |  | 74.2 µM |  |  | 1.48 µM | 3.54 µM |  | 1.3 µM | 2.65 µM |  |  |  | 23.6 µM
CCOc1ccc(N=Nc2ccc3oc(=O)c(/C(C)=N\NC(=O)CC(=O)Nc4ccc(Cl)cc4)cc3c2)cc1 |  | 11.4 µM | 36.9 µM | 31.5 µM | > 100 µM | 32 µM | 64.7 µM | 37.3 µM | > 100 µM | 36.4 µM |  |  |  |  |  |  |  |  |  | 
